Among the data in patent US20230073777A1, “CYCLIC-AMP RESPONSE ELEMENT BINDING PROTEIN (CBP) AND/OR ADENOVIRAL E1A BINDING PROTEIN OF 300 KDA (P300) DEGRADATION COMPOUNDS AND METHODS OF USE” (CULLGEN (SHANGHAI), INC., priority 2019, published 2023) are inhibition and IC50 values, retold here.

Experiment [1] addresses P300 (Homo sapiens, UniProt Q09472). Put plainly: Immunoblotting of P300 protein levels in LNCaP or 22RV1 cells. It is filed as cell-based. On the set-up: LNCaP or 22RV1 cells that express CBP/P300 proteins were treated with GNE-781 or the bivalent compounds; endogenous in cells; host or cells: LNCaP (clone FGC) or 22RV1 cells. As to conditions: read-out: Degradation (10 nM). In short, it runs like this: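 LNCaP or 22RV1 cells treated with compounds for indicated hours, DMSO as negative control. RIPA lysates resolved by SDS-PAGE and immunoblotted for P300 or CBP, tubulin or vinculin as loading control; chemiluminescent bands quantitated.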
(In western blotting, separated proteins are transferred to a membrane and probed.)

For experiment [2], the system named is LNCaP cells. Put plainly: LNCaP cell viability assay (CellTiter-Glo). Type of experiment: cell-based. As to conditions: Homo sapiens, 72 h, LNCaP prostate cancer cell viability inhibition, 3 days. In short, it runs like this:
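LNCaP cells, 5000/well, exposed to compounds in 12-point 3-fold serial dilution (top 10 μM) for 3 days. Viability by CellTiter-Glo luminescence, normalized to untreated cells; IC50 by least-squares nonlinear regression.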
On the technique in general: Cellular ATP, detected with luciferase, serves as a proxy for viable cell number.

[3] abbreviates: percentage of inhibition of p300 at 10 nM (Table 3).
[4] abbreviates: percentage of inhibition of p300 at 10 nM (Table 2).

Where two headings read alike, the source gives them in different places.

Chain of P300 (Q09472 whole entry): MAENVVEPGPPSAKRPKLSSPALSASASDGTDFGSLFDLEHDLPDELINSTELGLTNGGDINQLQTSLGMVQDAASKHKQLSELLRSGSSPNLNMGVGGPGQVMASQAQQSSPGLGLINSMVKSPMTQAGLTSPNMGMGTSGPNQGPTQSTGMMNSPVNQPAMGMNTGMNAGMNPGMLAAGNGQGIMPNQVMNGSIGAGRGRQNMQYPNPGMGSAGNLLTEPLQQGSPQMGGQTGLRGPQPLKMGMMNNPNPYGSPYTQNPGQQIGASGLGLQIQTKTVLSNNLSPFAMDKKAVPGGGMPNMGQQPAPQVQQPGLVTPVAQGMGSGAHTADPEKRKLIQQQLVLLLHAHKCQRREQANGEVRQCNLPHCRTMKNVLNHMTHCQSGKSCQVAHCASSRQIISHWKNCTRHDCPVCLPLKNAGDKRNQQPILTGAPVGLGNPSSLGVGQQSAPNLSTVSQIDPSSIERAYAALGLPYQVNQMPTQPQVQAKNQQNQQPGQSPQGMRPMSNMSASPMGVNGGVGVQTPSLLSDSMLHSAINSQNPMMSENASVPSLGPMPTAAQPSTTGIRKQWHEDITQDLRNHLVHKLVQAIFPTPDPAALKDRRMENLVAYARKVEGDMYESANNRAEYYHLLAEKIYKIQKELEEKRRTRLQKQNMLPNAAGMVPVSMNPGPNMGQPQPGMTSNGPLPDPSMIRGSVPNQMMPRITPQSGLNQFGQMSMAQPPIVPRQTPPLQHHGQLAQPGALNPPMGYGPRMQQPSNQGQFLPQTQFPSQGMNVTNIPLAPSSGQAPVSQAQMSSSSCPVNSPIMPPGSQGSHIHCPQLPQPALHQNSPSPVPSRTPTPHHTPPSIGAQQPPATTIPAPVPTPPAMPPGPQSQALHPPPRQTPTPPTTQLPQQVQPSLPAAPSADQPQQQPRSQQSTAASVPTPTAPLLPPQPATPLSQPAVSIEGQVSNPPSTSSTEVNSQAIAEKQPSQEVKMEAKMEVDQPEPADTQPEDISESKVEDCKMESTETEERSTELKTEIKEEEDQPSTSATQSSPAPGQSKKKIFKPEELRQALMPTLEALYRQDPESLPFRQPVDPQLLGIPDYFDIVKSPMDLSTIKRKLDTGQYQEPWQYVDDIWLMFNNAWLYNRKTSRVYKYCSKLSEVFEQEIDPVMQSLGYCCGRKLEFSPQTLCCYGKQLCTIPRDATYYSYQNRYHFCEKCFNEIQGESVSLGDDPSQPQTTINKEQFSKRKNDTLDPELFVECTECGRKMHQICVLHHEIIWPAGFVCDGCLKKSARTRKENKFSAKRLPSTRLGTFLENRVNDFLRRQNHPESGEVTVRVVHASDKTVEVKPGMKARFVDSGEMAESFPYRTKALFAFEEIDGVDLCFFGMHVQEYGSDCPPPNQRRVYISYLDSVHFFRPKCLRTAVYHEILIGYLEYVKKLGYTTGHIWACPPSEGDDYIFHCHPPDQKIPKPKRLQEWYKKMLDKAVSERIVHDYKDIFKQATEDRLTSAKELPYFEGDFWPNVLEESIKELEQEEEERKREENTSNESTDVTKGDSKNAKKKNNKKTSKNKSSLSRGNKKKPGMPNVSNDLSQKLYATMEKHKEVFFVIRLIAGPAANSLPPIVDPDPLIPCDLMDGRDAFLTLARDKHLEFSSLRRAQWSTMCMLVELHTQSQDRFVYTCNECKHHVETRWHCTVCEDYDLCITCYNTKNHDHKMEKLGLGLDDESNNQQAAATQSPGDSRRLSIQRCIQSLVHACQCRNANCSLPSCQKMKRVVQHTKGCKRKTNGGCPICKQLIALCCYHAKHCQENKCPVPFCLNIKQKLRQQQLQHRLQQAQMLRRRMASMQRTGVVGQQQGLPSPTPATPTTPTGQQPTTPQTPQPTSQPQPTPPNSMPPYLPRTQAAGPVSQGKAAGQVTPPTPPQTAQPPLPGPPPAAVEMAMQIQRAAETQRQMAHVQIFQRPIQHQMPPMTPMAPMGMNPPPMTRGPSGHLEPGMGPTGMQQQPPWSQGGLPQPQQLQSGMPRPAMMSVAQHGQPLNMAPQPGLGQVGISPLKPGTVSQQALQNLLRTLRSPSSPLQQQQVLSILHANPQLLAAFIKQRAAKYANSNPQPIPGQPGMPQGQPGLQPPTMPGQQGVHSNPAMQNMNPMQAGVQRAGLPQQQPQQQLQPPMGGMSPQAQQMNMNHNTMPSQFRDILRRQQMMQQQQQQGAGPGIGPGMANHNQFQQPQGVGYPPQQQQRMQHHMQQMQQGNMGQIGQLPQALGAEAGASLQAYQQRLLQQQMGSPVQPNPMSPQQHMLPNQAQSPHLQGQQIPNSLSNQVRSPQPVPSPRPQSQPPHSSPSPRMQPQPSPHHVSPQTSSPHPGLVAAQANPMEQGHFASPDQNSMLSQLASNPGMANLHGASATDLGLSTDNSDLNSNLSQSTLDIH

As usually defined, the IC50 is the midpoint of a concentration-inhibition curve. A lower IC50 goes with inhibition by little substance. In the case of `CC(=O)N1CCc2c(c(N3CCCc4cc(-c5cnn(C)c5)c(C(F)F)cc43)nn2C2CCN(C(=O)CN3CCC(COc4cccc5c4C(=O)N(C4CCC(=O)NC4=O)C5=O)CC3)CC2)C1` (stereo not drawn) [P-168, 4-((1-(2-(4-(5-Acetyl-3-(7-(difluoromethyl)-6-(1-methyl-1H-pyrazol-4-yl)-3,4-dihydroquinolin-1(2H)-yl)-4,5,6,7-tetrahydro-1H-pyrazolo[4,3-c]pyridin-1-yl)piperidin-1-yl)-2-oxoethyl)piperidin-4-yl)methoxy)-2-(2,6-dioxopiperidin-3-yl)isoindoline-1,3-dione], the inhibition at 0.01 µM in experiment [1] (setting [3]) is less than 20%. The same compound registered a 50% inhibitory concentration (IC50) in experiment [2] (CellTiter-Glo (Table 3)) of 0.156 µM.
For the compound `CNC(=O)N1CCc2c(c(N3CCCc4cc(-c5cnn(CC(=O)NCCOCCOCCOCCOCCOCCNc6ccc7c(c6)C(=O)N(C6CCC(=O)NC6=O)C7=O)c5)c(C(F)F)cc43)nn2C2CCOCC2)C1` (stereo not drawn) [P-032, 3-(7-(Difluoromethyl)-6-(1-(20-((2-(2,6-dioxopiperidin-3-yl)-1,3-dioxoisoindolin-5-yl)amino)-2-oxo-6,9,12,15,18-pentaoxa-3-azaicosyl)-1H-pyrazol-4-yl)-3,4-dihydroquinolin-1(2H)-yl)-N-methyl-1-(tetrahydro-2H-pyran-4-yl)-1,4,6,7-tetrahydro-5H-pyrazolo[4,3-c]pyridine-5-carboxamide], in experiment [1] (setting [4]), the inhibition at 0.01 µM was less than 20%. Also, in experiment [2] (CellTiter-Glo (Table 2)), 0.601 µM corresponded to half-maximal inhibition (IC50).
In the case of `CC(=O)N1CCc2c(c(N3CCCc4cc(-c5cnn(C)c5)c(C(F)F)cc43)nn2C2CCN(CCCCCCNc3cccc4c3C(=O)N(C3CCC(=O)NC3=O)C4=O)CC2)C1` (stereo not drawn) [P-112, 4-((6-(4-(5-acetyl-3-(7-(difluoromethyl)-6-(1-methyl-1H-pyrazol-4-yl)-3,4-dihydroquinolin-1(2H)-yl)-4,5,6,7-tetrahydro-1H-pyrazolo[4,3-c]pyridin-1-yl)piperidin-1-yl)hexyl)amino)-2-(2,6-dioxopiperidin-3-yl)isoindoline-1,3-dione], in experiment [1] (setting [3]), the inhibition at 0.01 µM was more than 80%. In experiment [2] (CellTiter-Glo (Table 3)), this compound had an IC50 of 0.0021 µM.
The like results for `CNC(=O)N1CCc2c(c(N3CCCc4cc(-c5cnn(C)c5)c(C(F)F)cc43)nn2C2CCN(CCCCCCOc3cccc4c3C(=O)N(C3CCC(=O)NC3=O)C4=O)CC2)C1` (stereo not drawn) [P-091, 3-(7-(difluoromethyl)-6-(1-methyl-1H-pyrazol-4-yl)-3,4-dihydroquinolin-1(2H)-yl)-1-(1-(6-((2-(2,6-dioxopiperidin-3-yl)-1,3-dioxoisoindolin-4-yl)oxy)hexyl)piperidin-4-yl)-N-methyl-1,4,6,7-tetrahydro-5H-pyrazolo[4,3-c]pyridine-5-carboxamide] were, in that order, more than 80% and 0.0021 µM.
As to `CNC(=O)N1CCc2c(c(N3CCCc4cc(-c5cnn(C)c5)c(C(F)F)cc43)nn2C2CCN(C(=O)CCCCNc3cccc4c3C(=O)N(C3CCC(=O)NC3=O)C4=O)CC2)C1` (stereo not drawn) [P-033, 3-(7-(difluoromethyl)-6-(1-methyl-1H-pyrazol-4-yl)-3,4-dihydroquinolin-1(2H)-yl)-1-(1-(5-((2-(2,6-dioxopiperidin-3-yl)-1,3-dioxoisoindolin-4-yl)amino)pentanoyl)piperidin-4-yl)-N-methyl-1,4,6,7-tetrahydro-5H-pyrazolo[4,3-c]pyridine-5-carboxamide], in experiment [1] (setting [4]), the inhibition at 0.01 µM was more than 80%. This compound also returned an IC50 in experiment [2] (CellTiter-Glo (Table 2)) of 0.0048 µM.
In the case of `CNC(=O)N1CCc2c(c(N3CCCc4cc(-c5cnn(C)c5)c(C(F)F)cc43)nn2C2CCN(C(=O)CCOCCNc3cccc4c3C(=O)N(C3CCC(=O)NC3=O)C4=O)CC2)C1` (stereo not drawn) [P-051, 3-(7-(Difluoromethyl)-6-(1-methyl-1H-pyrazol-4-yl)-3,4-dihydroquinolin-1(2H)-yl)-1-(1-(3-(2-((2-(2,6-dioxopiperidin-3-yl)-1,3-dioxoisoindolin-4-yl)amino)ethoxy)propanoyl)piperidin-4-yl)-N-methyl-1,4,6,7-tetrahydro-5H-pyrazolo[4,3-c]pyridine-5-carboxamide], the inhibition at 0.01 µM in experiment [1] (setting [3]) was less than 20%. Also, in experiment [2] (CellTiter-Glo (Table 3)), the IC50 is 0.0275 µM.
